Test results as given in US20230277491A1, “PHARMACEUTICAL COMBINATION COMPRISING GLYCOLIC ACID AND L-ALANINE” (priority 2020, published 2023).

Key:
cortical neurons = test: Calcium imaging on primary cortical neurons (SOCE, glutamate-triggered action potential); type: cell-based, mouse; conditions: FIG. 15
Experimental: GA enhances SOCE and calcium influx during glutamate-triggered action potentials. Fluorescent microscopy images in a show the effect of calcium, glutamate and ionomycin on intracellular calcium in Fluo-4 AM charged cortical neurons at different time points.
Primary cortical neuronal cell cultures were prepared from E15.5 embryos. Briefly, brain cortex from E15.5 pregnant wild type C57Bl/6J or PARK-7^−/− mice were dissected and placed in cold HBSS without Ca2+ and Mg2+(Sigma Aldrich H6648, Germany, EU). Once freed from all other cerebral structures, cortex were placed in an empty petri dish, sliced with the help of a scalpel and trypsinized using a 1:1 mixture of Trypsin (Gibco 25200-056):HBSS at 37° C. for 7 min. The samples were then centrifuged for 4 min. at 800 rpm and the supernatant was replaced with plating medium (89% Neurobasal A, 8.9% FBS, 0.9% L-glutamine, 0.9% N2 supplement and 0.4% P/S). […]
Variations in the Fluo-4 AM fluorescence during Ca^2+ and/or glutamate addition were analyzed using FIJI Image Analysis Freeware. The ROIs were determined using the standard deviation function for the stack of images before and after the addition of 1.8 mM CaCl2 (for changes in intracellular Ca^2+) or before and after the addition of glutamate. […] Once all ROIs were identified and selected, the MFI of each ROI for each time-point was measured with the measure function of the program to generate a matrix with the raw MFI values for each ROI for each time point. […] To determine the effect of GA and DL on Ca^2+ influx after CaCl2 addition and after glutamate addition, all ROIs where normalized using a max-min normalization as previously described: ([Ca^2+]Ca—[Ca^2+]t0/([Ca^2+]ionomycine-[Ca^2+]t0) Once the new matrix with the normalized values was generated, we determined the area under the curve (AUC) in excel using the formula: (Y1+Y2)/2*(X2−X1). The AUC was then obtained as the sum of all the generated values.

dopaminergic neurons = conditions: after DJ-1 knock-out or paraquat treatment; cited from earlier work

O=C(O)CO [GA, 2-hydroxyethanoic acid]
intracellular calcium during the glutamate-triggered action potential (cortical neurons; 2.5 mM GA): higher increases in intracellular calcium during the action potential | storage operated calcium entry (SOCE) (cortical neurons; 2.5 mM GA, after addition of calcium): increased storage operated calcium entry (SOCE) | calcium transients (cortical neurons): bigger calcium transients | survival of dopaminergic neurons (dopaminergic neurons): rescued the survival of dopaminergic neurons
